Laboratory results taken from patent US12521399B2, “Compound as voltage-gated sodium channel inhibitor” (Guangzhou Fermion Technology Co., Ltd., priority 2022, dated 2026).

Legend:
[1] = target: T1, human Nav1.8 ion channel stably expressed by CHO cells (Homo sapiens, UniProt Q9Y5Y9); experiment: Blocking activity on sodium ion channel 1.8 (Nav1.8), manual whole-cell patch clamp; format: cell-based; settings: Nav1.8 peak sodium current; for inhibition at 0.01 µM: 10 nM compound, read-out: Inhibition rate (%) @ 10 nM; for inhibition at 0.1 µM: 100 nM compound, read-out: Inhibition rate (%) @ 100 nM
T1 construct: expressed in transfected cells
T1 sequence (Q9Y5Y9 whole entry): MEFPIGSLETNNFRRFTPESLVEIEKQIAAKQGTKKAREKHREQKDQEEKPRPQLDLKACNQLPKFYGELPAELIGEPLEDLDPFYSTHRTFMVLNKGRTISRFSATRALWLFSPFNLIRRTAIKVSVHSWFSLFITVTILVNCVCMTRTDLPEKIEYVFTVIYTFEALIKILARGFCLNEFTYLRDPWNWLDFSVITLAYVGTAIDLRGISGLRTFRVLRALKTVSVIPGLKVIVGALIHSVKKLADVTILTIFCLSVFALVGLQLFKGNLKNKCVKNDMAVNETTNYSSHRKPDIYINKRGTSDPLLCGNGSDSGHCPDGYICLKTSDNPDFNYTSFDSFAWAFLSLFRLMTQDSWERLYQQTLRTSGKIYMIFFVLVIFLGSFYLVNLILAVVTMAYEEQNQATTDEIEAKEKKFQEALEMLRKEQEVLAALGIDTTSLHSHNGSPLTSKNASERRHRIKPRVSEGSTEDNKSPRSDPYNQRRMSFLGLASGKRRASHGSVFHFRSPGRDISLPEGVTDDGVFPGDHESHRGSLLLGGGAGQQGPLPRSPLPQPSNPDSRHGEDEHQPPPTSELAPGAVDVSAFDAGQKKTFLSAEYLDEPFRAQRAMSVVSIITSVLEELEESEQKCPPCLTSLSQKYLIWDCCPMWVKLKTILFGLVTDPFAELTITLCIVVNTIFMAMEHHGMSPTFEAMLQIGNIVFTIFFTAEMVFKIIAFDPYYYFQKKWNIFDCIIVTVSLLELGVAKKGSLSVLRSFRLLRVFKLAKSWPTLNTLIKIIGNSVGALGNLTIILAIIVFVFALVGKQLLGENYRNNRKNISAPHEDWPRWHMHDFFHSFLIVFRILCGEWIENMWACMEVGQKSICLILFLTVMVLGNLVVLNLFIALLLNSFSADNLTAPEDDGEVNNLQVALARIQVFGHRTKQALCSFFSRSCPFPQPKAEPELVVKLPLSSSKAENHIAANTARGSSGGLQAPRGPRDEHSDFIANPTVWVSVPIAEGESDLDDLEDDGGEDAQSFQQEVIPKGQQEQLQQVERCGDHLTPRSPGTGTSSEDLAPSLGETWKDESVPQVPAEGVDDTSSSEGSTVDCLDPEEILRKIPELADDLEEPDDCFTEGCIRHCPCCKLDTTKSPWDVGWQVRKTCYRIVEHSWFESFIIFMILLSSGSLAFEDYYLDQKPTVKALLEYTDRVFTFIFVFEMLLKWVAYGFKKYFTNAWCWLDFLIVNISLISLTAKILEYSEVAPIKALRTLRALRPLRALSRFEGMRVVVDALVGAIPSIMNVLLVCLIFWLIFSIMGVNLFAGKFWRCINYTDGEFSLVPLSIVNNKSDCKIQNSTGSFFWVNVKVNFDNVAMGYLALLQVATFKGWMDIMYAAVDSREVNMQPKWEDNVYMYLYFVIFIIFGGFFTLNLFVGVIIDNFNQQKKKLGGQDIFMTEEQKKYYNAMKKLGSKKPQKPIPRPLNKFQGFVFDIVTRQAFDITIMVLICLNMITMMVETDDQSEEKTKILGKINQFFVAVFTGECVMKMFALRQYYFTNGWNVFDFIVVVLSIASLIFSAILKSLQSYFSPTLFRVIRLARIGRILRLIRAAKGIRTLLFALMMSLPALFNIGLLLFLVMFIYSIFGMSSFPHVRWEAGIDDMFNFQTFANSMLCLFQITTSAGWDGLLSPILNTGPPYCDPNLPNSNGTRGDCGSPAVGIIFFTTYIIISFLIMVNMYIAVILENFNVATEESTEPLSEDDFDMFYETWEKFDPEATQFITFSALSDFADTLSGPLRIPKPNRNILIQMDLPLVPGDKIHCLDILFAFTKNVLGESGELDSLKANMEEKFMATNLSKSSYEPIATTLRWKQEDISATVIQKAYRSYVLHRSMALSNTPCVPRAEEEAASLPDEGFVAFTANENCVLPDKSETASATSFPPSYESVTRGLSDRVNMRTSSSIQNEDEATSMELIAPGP
Description: Test Example A: Blocking activity of the compound of the present invention on sodium ion channel 1.8 (Nav1.8)
Experimental objective: to determine the rate of inhibition of the compound on the human Nav1.8 ion channel stably expressed by CHO cells
The compound was dissolved using DMSO to prepare a stock solution. The stock solution was diluted with an extracellular fluid (140 mM NaCl, 3.5 mM KCl, 1 mM MgCl2, 2 mM CaCl2), 10 mM D-glucose, 10 mM HEPES, 1.25 mM NaH2PO4 2H2O, pH=7.4 (NaOH)) to particular concentrations to be used in manual patch clamp testing.
A capillary glass tube was stretched to form a recording electrode using a microelectrode puller. A microelectrode manipulator was operated under an inverted microscope to contact the recording electrode to the cells, and negative suction pressure was applied to form a GQ seal. Once the GQ seal was formed, rapid capacitance compensation was performed, and then the negative pressure was continued to break the cell membrane, forming a whole cell recording mode. Slow capacitance was compensated for, and the film capacitance and series resistance were recorded. No leakage compensation was applied. Once the Nav1.8 current recorded in the whole cell was stabilized, administration of the compound was started. The compound was allowed to act at the first concentration for 5 min (or until the electric current stabilized), and then the second concentration was tested. For each test compound, two concentrations were tested.
The voltage stimulation protocol for whole-cell patch clamp recording of Nav1.8 sodium current was as follows: once the whole cell seal was formed, the cellular voltage was clamped at −120 mV for 30 ms. The clamping voltage was depolarized to 0 mV for 50 ms, and then the voltage was restored to −50 mV (for the specific voltage, reference was made to the half inactivation voltage in IV testing) for 8 s. […] Data acquisition was repeated every 20 s. The effect of the compound on the peak value of the sodium current was observed. The experimental data was collected by an EPC-10 amplifier (HEKA) and was stored in PatchMaster (HEKA) software.

[2] = Pharmacokinetic evaluation by intravenous injection or gavage in rats; settings: Sprague-Dawley (SD), rat, in vivo
Description: Test Example B: Quantitative pharmacokinetic evaluation of the compound of the present invention administered by intravenous injection or gavage in rats.
The present inventors conducted pharmacokinetic evaluation of the compound of the present invention in rats.
The compound of the present invention was administered to the test animals as a solution of 5% DMSO+5% tween 80+90% physiological saline solution. The animals were fasted for 12 hours prior to the administration, but had free access to water. For the intravenous injection administration group, the administration dose was 1 mg/kg; for gavage administration, the administration dose was 10 mg/kg. Following administration, blood was intravenously collected from the animals (approximately 0.3 mL of blood) at the following time points: 0.083 h, 0.25 h, 0.5 h, 1.0 h, 2.0 h, 4.0 h, 8.0 h, and 24 h. The blood collection tubes previously had EDTA-K2 added thereto as an anticoagulant. Each blood sample was centrifuged at 6800 g at a low temperature for 6 minutes, and plasma was collected and stored at −80° C.
Sample preparation for LC-MS/MS assay: 20 μL of the plasma sample was subjected to protein precipitation using 400 μL of methanol containing 100 ng/mL of IS (tolbutamide). The mixture was vortexed for 1 minute and then centrifuged at 18000 g for 7 minutes. 400 μL of the supernatant was transferred to a 96-well plate. 2 μL of the supernatant were subjected to LC-MS/MS analysis.

Nav1.8 = Nav1.8 (Homo sapiens, UniProt Q9Y5Y9); settings: read-out: TTX IC50 (nm); cited from earlier work
Nav1.8, sequence (Q9Y5Y9 whole entry, looked up): as the sequence (Q9Y5Y9 whole entry) above

Nav1.3 = Nav1.3 (Homo sapiens, UniProt Q9NY46); settings: read-out: TTX IC50 (nm); cited from earlier work
Nav1.3, sequence (Q9NY46 whole entry, looked up): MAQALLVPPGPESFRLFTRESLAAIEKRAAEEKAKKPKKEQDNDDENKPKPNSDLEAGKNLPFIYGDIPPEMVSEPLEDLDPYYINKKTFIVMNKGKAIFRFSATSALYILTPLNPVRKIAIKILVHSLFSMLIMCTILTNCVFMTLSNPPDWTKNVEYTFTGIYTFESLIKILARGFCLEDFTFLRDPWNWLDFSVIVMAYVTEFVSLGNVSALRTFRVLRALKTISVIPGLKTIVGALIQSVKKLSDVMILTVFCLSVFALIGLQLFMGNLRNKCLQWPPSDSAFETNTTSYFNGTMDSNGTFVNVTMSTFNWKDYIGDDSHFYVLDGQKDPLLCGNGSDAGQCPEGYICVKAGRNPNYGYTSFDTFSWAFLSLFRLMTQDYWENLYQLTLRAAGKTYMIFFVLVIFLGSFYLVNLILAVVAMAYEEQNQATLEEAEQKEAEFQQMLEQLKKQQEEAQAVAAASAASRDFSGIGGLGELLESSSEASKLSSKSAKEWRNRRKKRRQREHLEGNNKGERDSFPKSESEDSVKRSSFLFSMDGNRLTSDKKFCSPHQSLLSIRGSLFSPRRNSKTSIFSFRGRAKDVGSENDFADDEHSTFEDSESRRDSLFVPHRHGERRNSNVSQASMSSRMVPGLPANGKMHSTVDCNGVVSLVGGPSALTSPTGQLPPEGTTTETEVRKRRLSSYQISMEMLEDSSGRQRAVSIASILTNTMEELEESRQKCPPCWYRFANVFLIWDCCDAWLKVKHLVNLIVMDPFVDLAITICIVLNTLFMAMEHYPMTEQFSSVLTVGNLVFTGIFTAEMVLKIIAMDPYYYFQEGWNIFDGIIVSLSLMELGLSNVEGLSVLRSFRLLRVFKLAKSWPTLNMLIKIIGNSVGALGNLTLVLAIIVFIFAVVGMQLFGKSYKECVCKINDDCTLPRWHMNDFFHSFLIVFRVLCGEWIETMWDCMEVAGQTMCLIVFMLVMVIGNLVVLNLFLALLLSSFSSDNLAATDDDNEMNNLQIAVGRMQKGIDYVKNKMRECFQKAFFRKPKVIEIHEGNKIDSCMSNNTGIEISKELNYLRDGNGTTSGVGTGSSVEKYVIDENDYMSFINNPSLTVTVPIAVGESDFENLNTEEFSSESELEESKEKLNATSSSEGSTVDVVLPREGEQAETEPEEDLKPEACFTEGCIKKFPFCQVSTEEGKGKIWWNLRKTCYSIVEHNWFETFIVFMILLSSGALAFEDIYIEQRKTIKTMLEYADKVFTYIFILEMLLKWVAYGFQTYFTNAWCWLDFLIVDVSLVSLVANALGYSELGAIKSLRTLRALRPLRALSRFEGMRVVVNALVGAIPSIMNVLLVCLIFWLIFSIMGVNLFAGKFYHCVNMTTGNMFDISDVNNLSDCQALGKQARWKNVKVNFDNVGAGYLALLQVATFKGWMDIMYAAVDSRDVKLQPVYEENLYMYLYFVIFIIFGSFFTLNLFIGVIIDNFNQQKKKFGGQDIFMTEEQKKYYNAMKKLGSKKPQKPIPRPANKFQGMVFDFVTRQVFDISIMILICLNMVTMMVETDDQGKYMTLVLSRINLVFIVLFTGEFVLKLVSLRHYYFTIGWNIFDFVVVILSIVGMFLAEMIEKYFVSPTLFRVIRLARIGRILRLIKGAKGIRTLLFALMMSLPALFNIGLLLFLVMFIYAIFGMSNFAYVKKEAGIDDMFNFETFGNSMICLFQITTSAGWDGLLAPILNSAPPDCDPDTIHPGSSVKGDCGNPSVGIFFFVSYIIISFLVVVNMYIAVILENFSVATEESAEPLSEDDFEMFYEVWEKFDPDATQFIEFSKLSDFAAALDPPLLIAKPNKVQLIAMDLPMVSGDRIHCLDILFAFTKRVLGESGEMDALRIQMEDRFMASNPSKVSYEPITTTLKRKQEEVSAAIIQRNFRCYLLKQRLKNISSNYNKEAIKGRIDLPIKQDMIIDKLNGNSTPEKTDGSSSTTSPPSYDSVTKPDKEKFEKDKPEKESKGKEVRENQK

| Compound | inhibition at 0.01 µM [1] [%] | inhibition at 0.1 µM [1] [%] | other results |
| --- | --- | --- | --- |
| CNCCNS(=O)(=O)c1cc(NC(=O)c2cc(Cl)c(C(F)(F)F)cc2Oc2ccc(F)cc2C)ccn1 [Compound 1, 5-chloro-2-(4-fluoro-2-methylphenoxy)-N-(2-(N-(2-(methylamino)ethyl)sulfamoyl)pyridin-4-yl)-4-(trifluoromethyl)benzamide] | 59.8 | 91.3 |  |
| Cc1cc(F)ccc1Oc1cc(C(F)(F)F)c(Cl)cc1C(=O)Nc1ccnc(S(=O)(=O)N[C@@H]2CCNC2)c1 [Compound 2, (R)-5-chloro-2-(4-fluoro-2-methylphenoxy)-N-(2-(N-(pyrrolidin-3-yl)sulfamoyl)pyridin-4-yl)-4-(trifluoromethyl)benzamide] | 84.5 | 100 |  |
| Cc1cc(F)ccc1Oc1cc(C(F)(F)F)c(Cl)cc1C(=O)Nc1ccnc(S(=O)(=O)N[C@H]2CCNC2)c1 [Compound 3, (S)-5-chloro-2-(4-fluoro-2-methylphenoxy)-N-(2-(N-(pyrrolidin-3-yl)sulfamoyl)pyridin-4-yl)-4-(trifluoromethyl)benzamide] | 92 | 98.4 |  |
| Cc1cc(F)ccc1Oc1cc(C(F)(F)F)c(Cl)cc1C(=O)Nc1ccnc(S(=O)(=O)NC2CCNCC2)c1 [Compound 4, 5-chloro-2-(4-fluoro-2-methylphenoxy)-N-(2-(N-(piperidin-4-yl)sulfamoyl)pyridin-4-yl)-4-(trifluoromethyl)benzamide] | 84.9 | 96.1 |  |
| Cc1cc(F)ccc1Oc1cc(C(F)(F)F)c(Cl)cc1C(=O)Nc1ccnc(S(=O)(=O)NCC2CCNCC2)c1 [Compound 5, 5-chloro-2-(4-fluoro-2-methylphenoxy)-N-(2-(N-(piperidin-4-ylmethyl)sulfamoyl)pyridin-4-yl)-4-(trifluoromethyl)benzamide] | 78.5 | 96.8 |  |
| Cc1cc(F)ccc1Oc1cc(C(F)(F)F)c(Cl)cc1C(=O)Nc1ccnc(S(=O)(=O)NC[C@@H]2CCNC2)c1 [Compound 6, (R)-5-chloro-2-(4-fluoro-2-methylphenoxy)-N-(2-(N-(pyrrolidin-3-ylmethyl)sulfamoyl)pyridin-4-yl)-4-(trifluoromethyl)benzamide] | 71.3 | 98.1 |  |
| Cc1cc(F)ccc1Oc1cc(C(F)(F)F)c(Cl)cc1C(=O)Nc1ccnc(S(=O)(=O)NC[C@H]2CCNC2)c1 [Compound 7, (S)-5-chloro-2-(4-fluoro-2-methylphenoxy)-N-(2-(N-(pyrrolidin-3-ylmethyl)sulfamoyl)pyridin-4-yl)-4-(trifluoromethyl)benzamide] | 91.5 | 97.1 |  |
| CCN1CC[C@H](NS(=O)(=O)c2cc(NC(=O)c3cc(Cl)c(C(F)(F)F)cc3Oc3ccc(F)cc3C)ccn2)C1 [Compound 8] | 68.6 | 93 |  |
| CCCN1CC[C@H](NS(=O)(=O)c2cc(NC(=O)c3cc(Cl)c(C(F)(F)F)cc3Oc3ccc(F)cc3C)ccn2)C1 [Compound 9, (S)-5-chloro-2-(4-fluoro-2-methylphenoxy)-N-(2-(N-(1-propylpyrrolidin-3-yl)sulfonamido)pyridin-4-yl)-4-(trifluoromethyl)benzamide] | 60.1 | 95.2 |  |
| Cc1cc(F)ccc1Oc1cc(C(F)(F)F)c(Cl)cc1C(=O)Nc1ccnc(S(=O)(=O)N[C@H]2CCN(CCF)C2)c1 [Compound 10, (S)-5-chloro-2-(4-fluoro-2-methylphenoxy)-N-(2-(N-(1-(2-fluoroethyl)pyrrolidin-3-yl)sulfamoyl)pyridin-4-yl)-4-(trifluoromethyl)benzamide] | 46.2 | 83.4 |  |
| CCN1CC[C@@H](NS(=O)(=O)c2cc(NC(=O)c3cc(Cl)c(C(F)(F)F)cc3Oc3ccc(F)cc3C)ccn2)C1 [Compound 11] | 80.5 | 97.8 |  |
| CCCN1CC[C@@H](NS(=O)(=O)c2cc(NC(=O)c3cc(Cl)c(C(F)(F)F)cc3Oc3ccc(F)cc3C)ccn2)C1 [Compound 12, (R)-5-chloro-2-(4-fluoro-2-methylphenoxy)-N-(2-(N-(1-propylpyrrolidin-3-yl)sulfamoyl)pyridin-4-yl)-4-(trifluoromethyl)benzamide] | 71.5 | 97.9 |  |
| Cc1cc(F)ccc1Oc1cc(C(F)(F)F)c(Cl)cc1C(=O)Nc1ccnc(S(C)(=N)=O)c1 (stereo not drawn) [Compound 13, 5-chloro-2-(4-fluoro-2-methylphenoxy)-N-(2-(S-methyliminosulfonyl)pyridin-4-yl)-4-(trifluoromethyl)benzamide] | 52.4 | 97.2 | AUC(0-t) ([2]; iv, 1 mg/kg): 2240 ng·h/mL; Cmax ([2]; iv, 1 mg/kg): 496 ng/mL; Tmax ([2]; iv, 1 mg/kg): 0.08 h; Vd ([2]; iv, 1 mg/kg): 2.48 L/kg; clearance ([2]; iv, 1 mg/kg): 7.52 mL/min/kg; half-life ([2]; iv, 1 mg/kg): 3.88 h; AUC(0-t) ([2]; po, 10 mg/kg): 18600 ng·h/mL; Cmax ([2]; po, 10 mg/kg): 1840 ng/mL; Tmax ([2]; po, 10 mg/kg): 2.67 h; bioavailability ([2]; po, 10 mg/kg): 83.2%; half-life ([2]; po, 10 mg/kg): 3.85 h |
| [2H]C([2H])([2H])Oc1cc(OC(F)(F)F)ccc1Oc1cc(C(F)(F)F)c(Cl)cc1C(=O)Nc1ccnc(S(C)(=N)=O)c1 (stereo not drawn) [Compound 15, 5-chloro-2-(2-(methoxy-d3)-4-(trifluoromethoxy)phenoxy)-N-(2-(S-methyliminosulfonyl)pyridin-4-yl)-4-(trifluoromethyl)benzamide] | 86.3 | 99.3 |  |
| CS(=N)(=O)c1cc(NC(=O)c2cc(Cl)c(C(F)(F)F)cc2N2CCCC(F)(F)CC2)ccn1 (stereo not drawn) [Compound 17, 5-chloro-2-(4,4-difluoroazepan-1-yl)-N-(2-(S-methyliminosulfonyl)pyridin-4-yl)-4-(trifluoromethyl)benzamide] | 71.9 | 96.5 |  |
| Cc1cc(F)ccc1Oc1cc(C(F)(F)F)c(Cl)cc1C(=O)Nc1cnnc(S(C)(=N)=O)c1 (stereo not drawn) [Compound 20, 5-chloro-2-(4-fluoro-2-methylphenoxy)-N-(6-(S-methyliminosulfonyl) 76 yridazine-4-yl)-4-(trifluoromethyl)benzamide] | 46.8 | 86.5 |  |
| [2H]C([2H])([2H])Oc1cc(F)ccc1Oc1cc(C(F)(F)F)c(Cl)cc1C(=O)Nc1ccc(F)c(S(C)(=N)=O)c1 (stereo not drawn) [Compound 24, 5-chloro-2-(4-fluoro-2-(methoxy-d3)phenoxy)-N-(4-fluoro-3-(S-methyliminosulfonyl)phenyl)-4-(trifluoromethyl)benzamide] | 83.9 | 99 |  |
| [2H]C([2H])([2H])Oc1cc(OC(F)(F)F)ccc1Oc1cc(C(F)(F)F)c(Cl)cc1C(=O)Nc1ccc(F)c(S(C)(=N)=O)c1 (stereo not drawn) [Compound 25, 5-chloro-N-(4-fluoro-3-(S-methyliminosulfonyl)phenyl)-2-(2-(methoxy-d3)-4-(trifluoromethoxy)phenoxy)-4-(trifluoromethyl)benzamide] | 82 | 95.5 |  |
| CS(=N)(=O)c1cc(NC(=O)c2cc(Cl)c(C(F)(F)F)cc2N2CCCC(F)(F)CC2)ccc1F (stereo not drawn) [Compound 27, 5-chloro-2-(4,4-difluoroazepan-1-yl)-N-(4-fluoro-3-(S-methyliminosulfonyl)phenyl)-4-(trifluoromethyl)benzamide] | 75.1 | 96 |  |
| NC1=N[C@H](O)[C@H]2[C@H]3O[C@]4(O)O[C@@H]([C@@H](O)[C@@]2(N1)[C@@H]4O)[C@]3(O)CO [TTX, tetrodotoxin] |  |  | IC50 (Nav1.8): 31 µM; IC50 (Nav1.3): 0.004 µM |
